This note sets out measurements from patent US20090029406A1, “Npy Y4 Agonist as Therapeutic Agent for Disease Accompanied by Intestinal Tract Dysfunction” (Banyu Pharmaceutical Co., Ltd., priority 2006, published 2009).

Test [1] deals with mouse models of constipation induced by clonidine. Briefly: Mouse models of constipation induced by clonidine, amount of excreted feces (Example 3). In kind it is in vivo. The conditions noted are these: clonidine 0.1 mg/kg i.p., mPP 1 mg/kg s.c. one hour later; 4 hours after clonidine (3 hours after mPP). As to the method: To male mice (C57BL/6J, 18 weeks of age), clonidine (0.1 mg/kg) was intraperitoneally administered, and to a vehicle group, only saline was intraperitoneally administered. One hour after the administration of clonidine, saline (a control group) or mPP (1 mg/kg) was subcutaneously administered, and also to a vehicle group, only saline was subcutaneously administered. The mice were subjected to fasting at the same time of the intraperitoneal administration of saline or clonidine. Feces were collected at 1, 2, 3 and 4 hours after the administration, and the weight of the feces was measured. A significant difference between groups was analyzed using an analysis of variance and the Tukey's test.

The subject of test [2] is proximal colon isolated from a wild-type mouse. In words: Tension of proximal colon isolated from wild-type mouse (Example 5). Conditions: 1 μM. The protocol:
(§1) The ileum, proximal colon and distal colon were isolated from an NPY Y4 receptor knockout mouse and a wild-type mouse (32 to 37 weeks of age). The specimens were cut into a length of 1 cm, respectively, and were suspended in the longitudinal muscle direction under a resting tension of 0.3 g in 5 mL of Krebs-Henseleit solution oxygenated with 95% O2 and 5% CO2, while setting the temperature of a bath to 37° C. The tension was measured using an isometric transducer (TB-65 1, manufactured by Nihon Kohden), and outputs were recorded at 20 points per second using Power Lab (ADInstrument).
(§2) After equilibration for 1 hour, 1 μM mPP was applied and measurement was carried out for 20 minutes. The above-mentioned mPP was prepared such that it became a 1 mM solution in DMSO, and 5 μL of the resulting solution was applied to 5 mL of an organ bath. The action of mPP was represented by a ratio of an average tension for 20 minutes after the application to an average tension for 20 minutes before the application. The statistical calculation was performed using the Student's t-test or paired t-test.

Another test has as its system male mice (C57BL/6J). Briefly: Amount of excreted feces after subcutaneous administration to mice (Example 1). In kind it is in vivo, mouse. The source says:
Also, it is known that the Y4 receptor is present in the lower gastrointestinal tract. Accordingly, by administering mouse PP (mPP) to a mouse, an effect on the movement of the lower gastrointestinal tract of the mouse was studied. That is, how the amount of excreted feces was changed by the administration of mPP was observed, and a change in the gastrointestinal movement was discussed by assuming that an increase in the amount of excreted feces reflects an increase in the lower gastrointestinal tract movement.
To male mice (C57BL/6J, 15 weeks of age), mPP (0.001, 0.01, 0.1 or 1 mg/kg) was subcutaneously administered, and to a vehicle group, only saline (5 mL/kg) was subcutaneously administered. The mice were subjected to fasting at the same time of the subcutaneous administration of saline or mPP. Feces were collected at 1, 2 and 4 hours after the administration, and the weight of the feces was measured. A significant difference between groups was analyzed using an analysis of variance and the Dunnett's test.

The test system of test [3] is NPY Y4 receptor knockout mice. In words: Amount of excreted feces in NPY Y4 receptor knockout mice (Example 4). In kind it is in vivo, mouse. Conditions: 1 mg/kg subcutaneous, vehicle group 358±31 mg/2 h. As to the method: (§3) The following test was carried out using wild-type mice and NPY Y4 receptor knockout mice (male, 23 to 39 weeks of age, n=10 to 16). mPP (1 mg/kg) or saline (5 mL/kg) was subcutaneously administered to the mice. The mice were subjected to fasting at the same time of the subcutaneous administration. Feces were collected at 1 and 2 hours after the administration, and the weight of the feces was measured. The cumulative amount of feces for 2 hours was used for an analysis, and a significant difference between groups was analyzed using the Student's t-test.

In test [4] the test system is ileum isolated from an NPY Y4 receptor knockout mouse and a wild-type mouse. In words: Tension of ileum isolated from NPY Y4 receptor knockout and wild-type mouse (Example 5). The conditions noted are these: 1 μM. The protocol: as §1, §2
The next test has as its system wild-type mice. Briefly: Amount of excreted feces in wild-type mice (Example 4). In kind it is in vivo, mouse. The conditions noted are these: 1 mg/kg subcutaneous. As to the method:
as §3

In test [5] the test system is proximal colon isolated from a C57BL/6 mouse. Briefly: Tension of isolated proximal colon, organ bath (Example 2). The protocol: (§4) The ileum, proximal colon and distal colon were isolated from a C57BL/6 mouse (8 to 20 weeks of age). The specimens were cut into a length of 1 cm, respectively, and were suspended in the longitudinal muscle direction under a resting tension of 0.3 g in 5 mL of Krebs-Henseleit solution (the composition is shown in Table 1) oxygenated with 95% O2 and 5% CO2, while setting the temperature of a bath to 37° C. The tension was measured using an isometric transducer (TB-651, manufactured by Nihon Kohden), and outputs were recorded at 20 points per second using Power Lab (manufactured by ADInstrument).
(§5) After equilibration for 1 hour, mPP at 0.01 μM, 0.1 μM and 1 μM was applied and measurement was carried out for 20 minutes. The above-mentioned mPP was prepared such that it became 0.01 mM, 0.1 mM and 1 mM solutions in DMSO, and 5 μL of each of the resulting solutions was applied to 5 mL of an organ bath. The action of mPP was represented by a ratio of an average tension for 20 minutes after the application to an average tension for 20 minutes before the application. The statistical calculation was performed using the paired t-test.

In test [6] the test system is distal colon isolated from a C57BL/6 mouse. In words: Tension of isolated distal colon, organ bath (Example 2). The protocol: as §4, §5
Test [7] deals with distal colon isolated from a wild-type mouse. In words: Tension of distal colon isolated from wild-type mouse (Example 5). Conditions: 1 μM. The protocol:
as §1, §2

For test [8], the system named is ileum isolated from a C57BL/6 mouse. Briefly: Tension of isolated ileum, organ bath (Example 2). The conditions noted are these: 0.01, 0.1 and 1 μM. As to the method: as §4, §5
Where [9] appears, read: 0.01, 0.1 and 1 μM, ratio of average tension 20 min after to 20 min before application.

As for “mouse PP (APLEPMYPGDYATPEQMAQYETQLRRYINTLTRPRY; mouse) [mPP]”, the “decrease in the amount of excreted feces compared with the vehicle group” value in test [1] is given as “a significant decrease in the amount of excreted feces was not observed”. Besides, the “increase in the tension” value in test [2] is reported as “an increase in the tension observed in the wild-type mouse”; in test [7], “an increase in the tension observed in the wild-type mouse”; in test [8], “a significant increase in the tension was not observed”. In addition, the “cumulative amount of excreted feces for 4 hours after administration” value came out at 325±22 mg/4 h in the test on male mice (C57BL/6J) (0.1 mg/kg subcutaneous, P<0.05 vs vehicle group (211±18 mg/4 h)) and 408±36 mg/4 h in the test on male mice (C57BL/6J) (1 mg/kg subcutaneous, P<0.01 vs vehicle group (211±18 mg/4 h)). The “action of increasing defecation (amount of excreted feces)” value in the test with male mice (C57BL/6J) (0.001, 0.01, 0.1 or 1 mg/kg subcutaneous, feces collected at 1, 2 and 4 hours) was “exhibited an action of increasing defecation in a dose dependent manner”. In addition, the “dose at which cumulative amount of excreted feces for 4 hours was significant compared with the vehicle group” value in the test on male mice (C57BL/6J) (subcutaneous) is listed as at least 0.1 mg/kg. Moreover, the “cumulative amount of feces for 2 hours” value is given as 403±43 mg/2 h in [3] and 668±64 mg/2 h with wild-type mice (P<0.01 vs vehicle group (322±41 mg/2 h)). For the same substance, in [4], the “difference in the change in the tension between wild-type and NPY Y4 receptor knockout mouse” value is “a difference was not observed between them”. Further, the “action of increasing defecation” value in the test with wild-type mice is given as “exhibited an action of increasing defecation”. Also, the amplitude of automatism result in test [5] and in [6] was “an increase in the amplitude of automatism was observed” each time. Further, the “increase in the tension, dose dependence” value in test [5] (0.01, 0.1 and 1 μM) was “increased the tension in a dose dependent manner”; in test [6] (0.01, 0.1 and 1 μM), “increased the tension in a dose dependent manner”. Further, the “maximum action on tension, of that before the application” value is 131% in [5] (setting [9]) and 152% in test [6] (setting [9]).
